Laboratory results from ChEMBL document CHEMBL4507273 (2021).

Key:
[1] = test system: Tyrosine-protein kinase ABL1 (Homo sapiens), P00519 [H396P]; details: Compound concentration 1000.0 nM
[2] = test system: Serine/threonine-protein kinase B-raf (Homo sapiens), P15056 [V600E]; details: Compound concentration 1000.0 nM
[3] = test system: Epidermal growth factor receptor (Homo sapiens), P00533 [L858R,T790M]; details: Compound concentration 1000.0 nM
[4] = test system: Receptor-type tyrosine-protein kinase FLT3 (Homo sapiens), P36888 [D835Y]; details: Compound concentration 1000.0 nM
[5] = test system: Tyrosine-protein kinase ABL1 (Homo sapiens), P00519 [M351T]; details: Compound concentration 1000.0 nM
[6] = biological target: Phosphatidylinositol 4,5-bisphosphate 3-kinase catalytic subunit beta isoform (Homo sapiens) (UniProt P42338); details: Compound concentration 1000.0 nM
[7] = biological target: MAP kinase-activated protein kinase 5 (Homo sapiens) (UniProt Q8IW41); details: Compound concentration 1000.0 nM
[8] = biological target: Serine/threonine-protein kinase Nek11 (Homo sapiens) (UniProt Q8NG66); details: Compound concentration 1000.0 nM
[9] = test system: Epidermal growth factor receptor (Homo sapiens), P00533 [UNDEFINED MUTATION]; details: Compound concentration 1000.0 nM
[10] = biological target: Serine/threonine-protein kinase MARK1 (Homo sapiens) (UniProt Q9P0L2); details: Compound concentration 1000.0 nM
[11] = biological target: Cyclin-dependent kinase 11A (Homo sapiens) (UniProt Q9UQ88); details: Compound concentration 1000.0 nM
Sequence of Cyclin-dependent kinase 11A (Homo sapiens) (Q9UQ88 whole entry): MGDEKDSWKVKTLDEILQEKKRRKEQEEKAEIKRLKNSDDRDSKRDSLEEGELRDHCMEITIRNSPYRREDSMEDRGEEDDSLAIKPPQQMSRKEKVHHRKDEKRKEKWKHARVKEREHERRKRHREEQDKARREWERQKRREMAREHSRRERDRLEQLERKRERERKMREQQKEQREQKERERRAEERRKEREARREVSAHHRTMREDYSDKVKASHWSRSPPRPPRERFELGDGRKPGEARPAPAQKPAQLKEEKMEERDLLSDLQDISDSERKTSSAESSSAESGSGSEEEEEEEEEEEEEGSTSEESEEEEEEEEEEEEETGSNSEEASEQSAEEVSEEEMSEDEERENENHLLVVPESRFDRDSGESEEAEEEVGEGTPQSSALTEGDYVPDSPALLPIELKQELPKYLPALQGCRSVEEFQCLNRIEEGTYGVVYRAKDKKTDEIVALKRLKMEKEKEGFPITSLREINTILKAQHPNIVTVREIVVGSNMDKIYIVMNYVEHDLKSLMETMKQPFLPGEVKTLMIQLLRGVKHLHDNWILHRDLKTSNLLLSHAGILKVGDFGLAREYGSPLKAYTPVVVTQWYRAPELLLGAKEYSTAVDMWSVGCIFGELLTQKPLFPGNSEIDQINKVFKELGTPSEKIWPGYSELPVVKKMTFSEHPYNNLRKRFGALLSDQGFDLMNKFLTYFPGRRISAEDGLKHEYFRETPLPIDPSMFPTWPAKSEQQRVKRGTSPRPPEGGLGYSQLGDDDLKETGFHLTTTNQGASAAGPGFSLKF

[12] = biological target: cAMP-dependent protein kinase catalytic subunit PRKX (Homo sapiens) (UniProt P51817); details: Compound concentration 1000.0 nM
Sequence of cAMP-dependent protein kinase catalytic subunit PRKX (Homo sapiens) (P51817 whole entry): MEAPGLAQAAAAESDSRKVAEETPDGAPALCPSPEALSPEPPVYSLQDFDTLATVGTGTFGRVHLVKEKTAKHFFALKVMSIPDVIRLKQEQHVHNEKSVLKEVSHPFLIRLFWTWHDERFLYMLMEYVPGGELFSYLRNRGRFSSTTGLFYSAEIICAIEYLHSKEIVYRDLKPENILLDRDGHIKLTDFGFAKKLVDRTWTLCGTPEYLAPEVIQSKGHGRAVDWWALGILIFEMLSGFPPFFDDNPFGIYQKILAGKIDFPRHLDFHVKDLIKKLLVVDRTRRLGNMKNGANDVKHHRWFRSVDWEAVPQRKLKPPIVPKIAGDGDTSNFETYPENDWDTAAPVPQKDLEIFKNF

[13] = biological target: Beta-3 adrenergic receptor (Homo sapiens) (UniProt P13945); details: Compound concentration 10.0 uM
[14] = biological target: Serine/threonine-protein kinase TNNI3K (Homo sapiens) (UniProt Q59H18); details: Compound concentration 1000.0 nM
[15] = test system: Receptor-type tyrosine-protein kinase FLT3 (Homo sapiens), P36888 [R834Q]; details: Compound concentration 1000.0 nM
[16] = biological target: Mitotic checkpoint serine/threonine-protein kinase BUB1 (Homo sapiens) (UniProt O43683); details: Compound concentration 1000.0 nM
[17] = biological target: Proto-oncogene tyrosine-protein kinase ROS (Homo sapiens) (UniProt P08922); details: Compound concentration 1000.0 nM
[18] = biological target: 5'-AMP-activated protein kinase catalytic subunit alpha-2 (Homo sapiens) (UniProt P54646); details: Compound concentration 1000.0 nM
Sequence of 5'-AMP-activated protein kinase catalytic subunit alpha-2 (Homo sapiens) (P54646 whole entry, looked up): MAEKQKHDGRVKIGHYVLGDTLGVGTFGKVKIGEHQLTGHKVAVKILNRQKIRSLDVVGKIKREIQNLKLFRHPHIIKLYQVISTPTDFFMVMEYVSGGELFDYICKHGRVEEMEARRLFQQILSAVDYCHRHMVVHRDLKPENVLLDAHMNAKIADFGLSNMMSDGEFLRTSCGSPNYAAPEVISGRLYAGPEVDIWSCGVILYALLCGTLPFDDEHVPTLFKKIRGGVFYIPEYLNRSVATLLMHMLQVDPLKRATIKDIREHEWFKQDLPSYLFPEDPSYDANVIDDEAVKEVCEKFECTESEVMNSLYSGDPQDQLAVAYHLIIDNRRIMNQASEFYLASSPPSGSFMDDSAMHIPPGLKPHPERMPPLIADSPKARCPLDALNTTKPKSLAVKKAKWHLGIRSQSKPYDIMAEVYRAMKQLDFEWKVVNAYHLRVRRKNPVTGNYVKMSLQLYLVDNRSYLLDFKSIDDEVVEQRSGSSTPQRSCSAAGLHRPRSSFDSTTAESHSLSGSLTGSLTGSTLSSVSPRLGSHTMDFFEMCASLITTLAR

[19] = biological target: T1, Muscarinic acetylcholine receptor M1 (Homo sapiens) (UniProt P11229); details: Compound concentration 10.0 uM
T1 sequence (whole entry): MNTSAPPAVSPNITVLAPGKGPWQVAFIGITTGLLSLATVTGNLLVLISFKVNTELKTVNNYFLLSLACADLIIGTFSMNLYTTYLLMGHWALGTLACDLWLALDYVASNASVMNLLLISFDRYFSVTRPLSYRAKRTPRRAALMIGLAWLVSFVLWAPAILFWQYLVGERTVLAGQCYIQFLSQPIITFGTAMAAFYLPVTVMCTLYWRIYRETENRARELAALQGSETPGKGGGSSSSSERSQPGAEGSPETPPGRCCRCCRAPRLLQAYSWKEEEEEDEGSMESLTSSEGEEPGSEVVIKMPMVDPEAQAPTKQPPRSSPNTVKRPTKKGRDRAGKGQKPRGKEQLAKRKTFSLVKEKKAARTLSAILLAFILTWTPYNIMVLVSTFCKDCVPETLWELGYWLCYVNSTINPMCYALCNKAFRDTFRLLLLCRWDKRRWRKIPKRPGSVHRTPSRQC

[20] = biological target: Serine/threonine-protein kinase N1 (Homo sapiens) (UniProt Q16512); details: Compound concentration 1000.0 nM
[21] = biological target: Vascular endothelial growth factor receptor 3 (Homo sapiens) (UniProt P35916); details: Compound concentration 1000.0 nM
Histamine H1 receptor = Histamine H1 receptor (Homo sapiens, UniProt P35367); details: Compound concentration 10.0 uM
[22] = biological target: Activin receptor type-2A (Homo sapiens) (UniProt P27037); details: Compound concentration 1000.0 nM
Sequence of Activin receptor type-2A (Homo sapiens) (P27037 whole entry): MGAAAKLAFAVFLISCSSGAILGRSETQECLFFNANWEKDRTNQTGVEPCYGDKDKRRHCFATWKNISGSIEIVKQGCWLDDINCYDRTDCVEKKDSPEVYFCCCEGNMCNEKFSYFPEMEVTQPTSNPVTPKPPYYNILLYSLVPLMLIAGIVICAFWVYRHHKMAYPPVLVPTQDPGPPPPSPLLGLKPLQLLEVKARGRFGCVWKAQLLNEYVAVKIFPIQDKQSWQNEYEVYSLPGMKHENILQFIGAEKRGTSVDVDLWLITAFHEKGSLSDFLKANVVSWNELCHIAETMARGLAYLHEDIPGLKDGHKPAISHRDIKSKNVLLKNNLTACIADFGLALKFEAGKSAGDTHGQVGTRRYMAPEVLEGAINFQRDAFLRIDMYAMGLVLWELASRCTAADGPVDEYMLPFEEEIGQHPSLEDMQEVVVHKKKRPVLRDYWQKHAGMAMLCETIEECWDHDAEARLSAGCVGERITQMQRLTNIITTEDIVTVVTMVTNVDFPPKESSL

[23] = biological target: Ephrin type-A receptor 7 (Homo sapiens) (UniProt Q15375); details: Compound concentration 1000.0 nM
Histamine H4 receptor = Histamine H4 receptor (Homo sapiens, UniProt Q9H3N8); details: Compound concentration 10.0 uM
[24] = biological target: Serine/threonine-protein kinase TAO1 (Homo sapiens) (UniProt Q7L7X3); details: Compound concentration 1000.0 nM
[25] = biological target: Dual specificity testis-specific protein kinase 1 (Homo sapiens) (UniProt Q15569); details: Compound concentration 1000.0 nM
[26] = biological target: Serine/threonine-protein kinase pim-3 (Homo sapiens) (UniProt Q86V86); details: Compound concentration 1000.0 nM
[27] = biological target: Ribosomal protein S6 kinase alpha-1 (Homo sapiens) (UniProt Q15418); details: Compound concentration 1000.0 nM
Sequence of Ribosomal protein S6 kinase alpha-1 (Homo sapiens) (Q15418 whole entry): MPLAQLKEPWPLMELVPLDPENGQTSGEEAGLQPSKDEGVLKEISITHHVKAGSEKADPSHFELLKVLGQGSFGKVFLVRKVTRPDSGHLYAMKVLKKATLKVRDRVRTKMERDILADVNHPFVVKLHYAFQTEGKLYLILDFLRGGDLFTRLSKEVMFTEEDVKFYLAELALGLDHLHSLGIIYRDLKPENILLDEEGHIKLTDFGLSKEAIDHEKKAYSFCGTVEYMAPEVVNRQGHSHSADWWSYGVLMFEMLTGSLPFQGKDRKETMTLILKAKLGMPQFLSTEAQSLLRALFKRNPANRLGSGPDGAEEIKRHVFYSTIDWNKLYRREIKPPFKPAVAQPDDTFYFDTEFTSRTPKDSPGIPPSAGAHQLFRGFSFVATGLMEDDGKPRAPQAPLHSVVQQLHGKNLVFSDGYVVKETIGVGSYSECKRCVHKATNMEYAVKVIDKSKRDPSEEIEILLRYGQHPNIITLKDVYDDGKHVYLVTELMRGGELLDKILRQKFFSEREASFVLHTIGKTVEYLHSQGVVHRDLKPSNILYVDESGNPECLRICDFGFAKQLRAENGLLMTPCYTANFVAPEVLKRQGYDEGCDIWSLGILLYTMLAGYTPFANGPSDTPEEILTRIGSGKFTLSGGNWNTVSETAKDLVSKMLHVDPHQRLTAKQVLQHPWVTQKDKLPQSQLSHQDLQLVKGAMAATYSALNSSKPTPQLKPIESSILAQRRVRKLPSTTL

[28] = biological target: Serine/threonine-protein kinase N2 (Homo sapiens) (UniProt Q16513); details: Compound concentration 1000.0 nM
[29] = biological target: Homeodomain-interacting protein kinase 4 (Homo sapiens) (UniProt Q8NE63); details: Compound concentration 1000.0 nM
Sequence of Homeodomain-interacting protein kinase 4 (Homo sapiens) (Q8NE63 whole entry): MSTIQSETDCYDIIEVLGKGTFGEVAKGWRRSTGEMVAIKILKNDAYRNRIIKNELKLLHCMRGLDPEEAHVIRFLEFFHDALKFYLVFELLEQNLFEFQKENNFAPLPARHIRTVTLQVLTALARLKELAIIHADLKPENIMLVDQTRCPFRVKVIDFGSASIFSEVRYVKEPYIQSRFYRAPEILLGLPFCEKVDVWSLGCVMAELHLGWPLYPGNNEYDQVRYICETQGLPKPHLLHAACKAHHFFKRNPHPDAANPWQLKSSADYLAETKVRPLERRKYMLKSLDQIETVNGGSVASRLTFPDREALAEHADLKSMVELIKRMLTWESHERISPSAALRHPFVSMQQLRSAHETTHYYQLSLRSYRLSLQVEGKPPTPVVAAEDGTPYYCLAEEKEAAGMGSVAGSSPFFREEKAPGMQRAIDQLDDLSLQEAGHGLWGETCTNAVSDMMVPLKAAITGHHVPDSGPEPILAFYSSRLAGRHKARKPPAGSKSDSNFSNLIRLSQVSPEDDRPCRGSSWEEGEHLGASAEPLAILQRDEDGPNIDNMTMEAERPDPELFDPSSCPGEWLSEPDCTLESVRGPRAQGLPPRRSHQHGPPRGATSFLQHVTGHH

[30] = biological target: T2, 5-hydroxytryptamine receptor 1A (Homo sapiens, UniProt P08908); assay: GPCRScan assay: inhibition of 5-HT1A; parameters: radioligand conc. used [nm] 0.5 – 1.0, parental cells stable CHO
T2 sequence (P08908 whole entry): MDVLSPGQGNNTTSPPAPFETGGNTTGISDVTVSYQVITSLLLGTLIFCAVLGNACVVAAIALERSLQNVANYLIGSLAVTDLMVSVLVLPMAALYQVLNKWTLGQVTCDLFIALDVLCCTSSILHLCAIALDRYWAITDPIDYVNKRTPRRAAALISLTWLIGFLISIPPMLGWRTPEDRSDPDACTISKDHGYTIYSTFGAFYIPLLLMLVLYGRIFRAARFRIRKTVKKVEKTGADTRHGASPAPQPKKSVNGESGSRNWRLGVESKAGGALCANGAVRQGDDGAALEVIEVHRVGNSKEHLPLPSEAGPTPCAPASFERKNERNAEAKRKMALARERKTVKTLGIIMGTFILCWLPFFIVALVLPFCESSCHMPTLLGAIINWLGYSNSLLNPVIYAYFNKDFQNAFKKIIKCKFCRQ

[31] = biological target: Calcium/calmodulin-dependent protein kinase type 1G (Homo sapiens) (UniProt Q96NX5); details: Compound concentration 1000.0 nM

Sequence of Serine/threonine-protein kinase B-raf (Homo sapiens), P15056 [V600E] (P15056 whole entry V600E): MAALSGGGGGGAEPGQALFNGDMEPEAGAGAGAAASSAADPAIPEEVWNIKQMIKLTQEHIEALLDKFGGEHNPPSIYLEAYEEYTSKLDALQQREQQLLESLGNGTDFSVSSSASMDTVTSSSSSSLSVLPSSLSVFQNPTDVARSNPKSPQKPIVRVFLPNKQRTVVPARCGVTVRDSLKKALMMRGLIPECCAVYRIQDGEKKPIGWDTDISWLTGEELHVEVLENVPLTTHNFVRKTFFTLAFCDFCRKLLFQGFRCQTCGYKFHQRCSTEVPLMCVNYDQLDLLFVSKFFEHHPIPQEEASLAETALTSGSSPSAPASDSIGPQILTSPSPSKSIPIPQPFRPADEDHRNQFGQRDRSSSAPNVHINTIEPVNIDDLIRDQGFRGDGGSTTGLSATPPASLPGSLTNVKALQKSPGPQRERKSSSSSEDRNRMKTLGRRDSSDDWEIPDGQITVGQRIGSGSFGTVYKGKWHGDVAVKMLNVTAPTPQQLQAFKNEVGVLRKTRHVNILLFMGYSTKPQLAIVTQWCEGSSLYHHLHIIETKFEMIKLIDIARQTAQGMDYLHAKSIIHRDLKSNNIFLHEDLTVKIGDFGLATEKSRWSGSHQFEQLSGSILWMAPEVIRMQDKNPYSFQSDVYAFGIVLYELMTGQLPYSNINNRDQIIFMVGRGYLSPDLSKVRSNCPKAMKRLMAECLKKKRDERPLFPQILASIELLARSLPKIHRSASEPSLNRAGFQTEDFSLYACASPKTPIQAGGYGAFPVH

| Structure (SMILES) | residual activity [1] [%] | residual activity [2] [%] | residual activity [3] [%] | residual activity [4] [%] | residual activity [5] [%] | residual activity [6] [%] | residual activity [7] [%] | residual activity [8] [%] | residual activity [9] [%] | residual activity [10] [%] | residual activity [11] [%] | residual activity [12] [%] | inhibition [13] [%] | residual activity [14] [%] | residual activity [15] [%] | residual activity [16] [%] | residual activity [17] [%] | residual activity [18] [%] | inhibition [19] [%] | residual activity [20] [%] | further results |
| --- | --- | --- | --- | --- | --- | --- | --- | --- | --- | --- | --- | --- | --- | --- | --- | --- | --- | --- | --- | --- | --- |
| CNCc1ccccc1-c1csc([C@H](C)Nc2nc(C)nc3cc(OC)c(OC)cc23)c1 [BAY-294] | 89 | 84 | 87 | 100 | 85 | 89 | 100 | 100 | 81 | 100 | 100 | 76 | 38.2 | 100 | 82 | 100 | 100 | 100 | 89.1 | 100 | residual activity [21]: 100%; inhibition (Histamine H1 receptor): 56.7%; residual activity [22]: 76%; residual activity [23]: 100%; inhibition (Histamine H4 receptor): 67%; residual activity [24]: 100%; residual activity [25]: 100%; residual activity [26]: 100%; residual activity [27]: 100%; residual activity [28]: 90%; residual activity [29]: 91%; Ki ([30]; read-out: Ki): 0.391 µM; residual activity [31]: 96% |
| CNCc1ccccc1-c1csc([C@@H](C)Nc2nc(C)nc3cc(OC)c(OC)cc23)c1 [BAY-293] | 78 | 100 | 93 | 84 | 74 | 96 | 88 | 100 | 63 | 100 | 91 | 67 | 20 | 100 | 79 | 100 | 84 | 97 | 88.8 | 100 | residual activity [21]: 83%; inhibition (Histamine H1 receptor): 49.4%; residual activity [22]: 94%; residual activity [23]: 100%; inhibition (Histamine H4 receptor): 42.1%; residual activity [24]: 95%; residual activity [25]: 83%; residual activity [26]: 83%; residual activity [27]: 100%; residual activity [28]: 89%; residual activity [29]: 86%; Ki ([30]; read-out: Ki): 3.63 µM; Ki ([30]; read-out: pKi (converted)): 3.35 µM; residual activity [31]: 93% |
